Results reported in patent publication EP0532027B1, “Cyclic nitrones, their preparation and pharmaceutical compositions containing them” (MERRELL PHARMACEUTICALS INC., priority 1991, dated 1993).
pIC50: −log10 of the molar value.

Key:
[1] = Inhibition of oxidation of soy PC liposome initiated with hydrogen peroxide and Fe2+ (thiobarbituric acid readout); type: biochemical; settings: amount required to inhibit 100% of oxidation of soy liposome over 15 minutes; 50uM H2O2, 50uM Fe2+, 37°C, pH 7.0
Description: One such assay is based upon the fact that the lipid, soybean phosphatidylcholine, readily undergoes oxidation. This oxidation may be initiated by a variety of oxidizing agents such as Fe^2+ and H2O2, or 2,2'-azobis-(2-amidinopropane). A spin trapping agent will decrease the rate at which the lipid undergoes oxidation in this assay. This assay is described in detail in: a) Nilsson, U.A., Olsson, L-I, Carlin, G. and Bylund-Fellenius, A-C. (1989) Inhibition of lipid peroxidation by spin labels. Relationships between structure and function. J. Biol. Chem. 264:11131-11135; and b) Aust, S.D. (1985). Lipid peroxidation. In Handbook of Methods for Oxygen Radical Research. (Greenwald, R.A., ed.) CRC Press, Inc. Boca Raton, Florida, pp. 203-207.
Soybean phosphatidylcholine (PC) was obtained from commercial suppliers such as Sigma or Avanti Polar Lipids. The soy PC was dissolved in ethanol achieving a final concentration of 0.563mM. […]
The ability of a compound to inhibit oxidation of the soy PC liposome was evaluated in the following manner. […]
The samples were heated at 100°C for 20 minutes, cooled and centrifuged. The absorbance of the resulting supernatant was determined at 532-580nm. Quantitation of the thiobarbituric acid/oxidized PC complex was determined by comparison to a standard curve of malondialdehyde equivalents generated by acid catalysed hydrolysis of 1,1,3,3-tetraethoxypropane. […]

[2] = Inhibition of oxidation of soy PC liposome by Fe2+/histidine-Fe3+ (thiobarbituric acid readout); type: biochemical; settings: histidine/Fe3+ 250:50uM, initiated with 50 uM Fe2+; 15 minutes, 37°C
gerbils [3] = assay: Gerbil model of stroke (cerebral ischemia/reperfusion); type: in vivo; settings: for protective effect in gerbil model: 32 mg/kg, Figure V; for locomotor activity of ischemic gerbils: pretreated 30 minutes prior to ischemic event, Figure III
Description: One of the primary therapeutic uses of pharmaceutical compositions containing these compounds will be in the treatment of stroke. Strokes are associated with cerebral ischemia. Initially, it was thought that the CNS damage that often accompanies a stroke was a direct result of the tissues being deprived of oxygen. Recent research has shown that most of the damage occurs when the tissues are reoxygenated during reperfusion. […] Gastroenterology, 82, 9-15 (1982). Oliver et al has shown that a significant amount of this damage occurs due to free oxygen radicals and the oxidation sequence which they initiate, Proc. Natl. Acad. Sci. USA, vol. 87, pp 5144-5147 July 1990. […] In this model the carotid arteries of gerbils are constricted surgically and after a predetermined period, the constriction is removed so that surrounding tissues may be reperfused. CNS damage, which occurs upon reperfusion, can be measured by the level of protein oxidation that occurs in the brain or by examining the gerbil's behavior. […] Oliver et al and Phillis et al have also shown similar results with PBN, supra and Neuroscience Letter, 116 (1990) 315-319.
The compound, 3,4-dihydro-3,3-dimethylisoquinoline N-oxide which was the product of Example I (hereinafter compound) was tested in a gerbil model as described above. The exact procedure utilized is described by Chandler et al. in Journal of Pharmacological Methods Vol. 14, pages 137-146 (1985). Figures I-V summarize the results that were obtained.
Figure I depicts the effect the compound had on the motor activity of non-ischemic gerbils.
Figure II depicts the effects that ischemia has upon the gerbils locomotor activity.
The gerbils were pretreated with the compound 30 minutes prior to initiation of the ischemic event.
Figure IV compares the neuronal loss of ischemic gerbils receiving various doses of compound with both control gerbils and non-ischemic gerbils.
All compounds were administered at 32 mg/kg. […] Compound A represents the product of Example I, F = Example III, and G = Example II.

ENDOTOXIN TREATED RATS = assay: Animal model of septic shock: survival of endotoxin treated rats; type: in vivo, Male Sprague Dawley rats; settings: 72 hours after endotoxin
Procedure: In this test rats were injected with endotoxin and a control survival rate was determined. Other groups of rats were pretreated with one of the compounds of Formula I at varied dosages and then administered endotoxin and the survival rates were compared. This test was conducted in the following manner. Male Sprague Dawley rats were utilized (weight 215g-300g) in each test group. Endotoxin (30mg/kg) was administered intraperitoneally (IP). A test compound or vehicle was administered IP 30 minutes prior to endotoxin administration. The following results were obtained: TABLE III

[4] = system: INTERLEUKIN-1 RELEASE BY HUMAN MACROPHAGES; assay: Inhibition of interleukin-1 release by endotoxin-stimulated human macrophages (ELISA); type: cell-based; settings: Macrophage, two million macrophages stimulated with 20 nanograms endotoxin for 24 hours, IL-1 in supernatant
Description: These include arthritis, psoriasis, athersclerosis, and diabetes. […] One such in-vitro assay is based upon the fact that when human macrophages are exposed to endotoxin, the macrophages secrete IL-1.
The in-vitro studies of IL-1 production was facilitated by a specific property of macrophages, i. e. attachment to non-self, e.g. plastic surface. In this assay, human peripheral blood monocyte-derived macrophages were enriched by plastic adherence. Two million of these macrophages were stimulated with 20 nanograms of endotoxin for 24 hours. Culture supernatants were then collected and the levels of IL-1 were assayed by enzyme-linked immuno-sorbent assay (ELISA). The same assay was repeated except that it was done in the presence of the test compound. The assay was repeated until an IC50 was calculated.

Interleukin-1 = assay: Blood levels of interleukin-1 in endotoxin-treated mice (ELISA); type: in vivo, male Charles-Dawley mice; settings: mice given endotoxin and test compound, endotoxin alone 58.3, vehicle without endotoxin 29.2
Procedure: Normal 7 week old male Charles-Dawley mice were utilized in the assay. The mice were injected with vehicle and a baseline blood level of IL-1 was established by an IL-1 specific ELISA ninety (90) minutes after administration. The animals were then administered both endotoxin and vehicle and a blood level of IL-1 was determined. Finally the animals were administered endotoxin and the test compound and the effect upon IL-1 blood levels was determined.

gerbils [5] = settings: literature (Floyd; Oliver et al; Phillis et al); versus control animals; cited from earlier work
myocardial tissues = settings: literature (Bolli et al); cited from earlier work
[6] = system: animal models of circulatory shock; settings: literature (Hamburger & McCay; Novelli et al.); cited from earlier work
[7] = dose 3 mg/kg IP 30 minutes prior to endotoxin (30mg/kg IP)
[8] = dose 10 mg/kg IP 30 minutes prior to endotoxin (30mg/kg IP)
[9] = dose 30 mg/kg IP 30 minutes prior to endotoxin (30mg/kg IP)

Row | SMILES | IC100 Required to prevent Oxidation of Soybean Phosphatidylcholne by Fe^+2/H202 [1] | IC100 Required to prevent Oxidation of Soybean Phosphatidylcholne by Fe^+2/histidine-Fe^3+ [2] | protective effect in gerbil model (gerbils [3]) | % Surviving (ENDOTOXIN TREATED RATS; [7]) | Survival Rate (ENDOTOXIN TREATED RATS; [7]) | % Surviving (ENDOTOXIN TREATED RATS; [8]) | Survival Rate (ENDOTOXIN TREATED RATS; [8]) | pIC50 [4] | IL-1 (picrogram/ml-serum) (Interleukin-1) | % Surviving (ENDOTOXIN TREATED RATS; [9]) | Survival Rate (ENDOTOXIN TREATED RATS; [9]) | CNS damage in gerbil model of stroke (gerbils [5]) | myocardial dysfunction occurring after reperfusion (myocardial tissues) | survival in animal models of circulatory shock [6] | locomotor activity of ischemic gerbils (gerbils [3]; 30mg/kg) | locomotor activity of ischemic gerbils (gerbils [3]; 100mg/kg) | locomotor activity of non-ischemic gerbils (gerbils [3]; non-ischemic gerbils, Figure I) | neuronal loss of ischemic gerbils (gerbils [3]; various doses, versus control and non-ischemic gerbils, Figure IV)
1 | [O-][N+]1=Cc2ccccc2CC12CCCCC2 [Example II, Sprio [cyclohexane-1,3']-3,4-dihydroisoquinoline-N-oxide] | 0.1 mM | 0.3 mM | protective effect | 30% | 3/10 | 91% | 19/23 | 3.70 | 4.7 picrogram/ml-serum | – | – | – | – | – | – | – | – | –
2 | [O-][N+]1=Cc2ccccc2CC12CCCC2 [Example III, Spiro [cyclopentane-1,3']-[1H]dihydroisoquinoline 2-oxide] | 0.3 mM | 0.7 mM | protective effect | – | – | 17% | 2/12 | 4.00 | 10.2 picrogram/ml-serum | 91% | 10/11 | – | – | – | – | – | – | –
3 | CC(C)(C)[N+]([O-])=Cc1ccccc1 [PBN, α-phenyl N-tert-butyl nitrone] | – | – | – | – | – | – | – | – | – | – | – | less CNS damage | decreases the amount of myocardial dysfunction | significantly increase survival | – | – | – | –
4 | CC1(C)Cc2ccccc2C=[N+]1[O-] [Example I, 3,4-Dihydro-3,3-dimethylisoquinoline N-oxide] | – | – | protective effect | 33% | 4/12 | 58% | 7/12 | 3.48 | 6.4 picrogram/ml-serum | 83% | 10/12 | – | – | – | significantly decreased | significantly decreased | no effect | saved significant amounts of neuronal tissue
